Test results as given in ChEMBL document CHEMBL2311418, “Structure-activity relationships of antitubercular salicylanilides consistent with disruption of the proton gradient via proton shuttling” (Bioorg Med Chem, 2013).
Values after ≈ are worked out from the molar mass of the structure shown.

Tests used:
[1] = system: Mycobacterium tuberculosis; test: Antitubercular activity against Mycobacterium tuberculosis H37Rv ATCC27294 assessed as complete cessation of growth; type: functional; conditions: H37Rv ATCC 27294
[2] = Cytotoxicity against mouse macrophage cell line J774.1 (ATCC TIB-67) for 3 days by Alamar Blue; type: cell-based; conditions: 72 h

SMILES	MIC [1] [µM]	IC50 [2] [µM]
Cc1c(C(F)(F)F)cc(NC(=O)c2cc(Cl)ccc2O)cc1C(F)(F)F	0.8 (≈ 0.318 µg/mL)	< 1.9
Cc1c(NC(=O)c2cc(Cl)ccc2O)cc(C(F)(F)F)cc1C(F)(F)F	3.1 (≈ 1.23 µg/mL)	3.2
O=C(Nc1cc(F)c(Br)c(F)c1)c1cc(Cl)ccc1O	1.6 (≈ 0.58 µg/mL)	4.3
O=C(Nc1cc(F)c(F)c(F)c1)c1cc(Cl)ccc1O	1.6 (≈ 0.483 µg/mL)	4.7
O=C(Nc1cc(Cl)c(Cl)c(Cl)c1)c1cc(Cl)ccc1O	1.6 (≈ 0.562 µg/mL)	5.4
O=C(Nc1cc(F)c(F)cc1F)c1cc(Cl)ccc1O	3.1 (≈ 0.935 µg/mL)	6.2
O=C(Nc1ccc(F)c(F)c1F)c1cc(Cl)ccc1O	6.3 (≈ 1.9 µg/mL)	6.7
COc1cc(NC(=O)c2cc(Cl)ccc2O)c(Cl)cc1Cl	13 (≈ 4.51 µg/mL)	8
O=C(Nc1cc(O)c(Cl)cc1Cl)c1cc(Cl)ccc1O	> 50	32
O=C(Nc1cc(Br)cc(C(F)(F)F)c1)c1cc(F)ccc1O	3.1 (≈ 1.17 µg/mL)	4.7
O=C(Nc1cc(C(F)(F)F)ccc1Cl)c1cc(F)ccc1O	3.1 (≈ 1.03 µg/mL)	6.1
O=C(Nc1cc(F)cc(F)c1)c1cc(F)ccc1O	6.3 (≈ 1.68 µg/mL)	9.6
O=C(Nc1ccc(C(F)(F)F)cc1)c1cc(F)ccc1O	3.1 (≈ 0.928 µg/mL)	5.4
O=C(Nc1cc(C(F)(F)F)ccc1F)c1cc(F)ccc1O	6.3 (≈ 2 µg/mL)	5.1
O=C(Nc1cccc(C(F)(F)F)c1)c1cc(F)ccc1O	6.3 (≈ 1.89 µg/mL)	6.1
O=C(Nc1cc(C(F)(F)F)cc(C(F)(F)F)c1)c1cccc(Cl)c1	> 50	> 60
O=C(Nc1cc(C(F)(F)F)cc(C(F)(F)F)c1)c1ccccc1	> 50	
O=C(Nc1cc(C(F)(F)F)cc(C(F)(F)F)c1)c1cc(-n2cccc2)ccc1O	3.1 (≈ 1.28 µg/mL)	3.1
Cc1ccc(O)c(C(=O)Nc2cc(C(F)(F)F)cc(C(F)(F)F)c2)c1	6.3 (≈ 2.29 µg/mL)	5.4
O=C(Nc1cc(C(F)(F)F)cc(C(F)(F)F)c1)c1cc(F)ccc1O	3.1 (≈ 1.14 µg/mL)	2.5
O=C(Nc1cc(C(F)(F)F)cc(C(F)(F)F)c1)c1cc(Br)ccc1O	6.3 (≈ 2.7 µg/mL)	4.9
O=C(Nc1cc(C(F)(F)F)cc(C(F)(F)F)c1)c1cc(I)ccc1O	6.3 (≈ 2.99 µg/mL)	5.6
COc1ccc(O)c(C(=O)Nc2cc(C(F)(F)F)cc(C(F)(F)F)c2)c1	6.3 (≈ 2.39 µg/mL)	7.7
O=C(Nc1cc(C(F)(F)F)cc(C(F)(F)F)c1)c1cc(Cl)cc(Cl)c1O	13 (≈ 5.44 µg/mL)	> 60

SMILES	MIC [1] [µM]	IC50 [2] [µM]
O=C(Nc1cc(C(F)(F)F)cc(C(F)(F)F)c1)c1cccc(O)c1O	> 50	1.7
O=C(Nc1cc(C(F)(F)F)cc(C(F)(F)F)c1)c1cc([N+](=O)[O-])ccc1O	≥ 50	> 60
CC(=O)Oc1ccc(Cl)cc1C(=O)Nc1cc(C(F)(F)F)cc(C(F)(F)F)c1	1.6 (≈ 0.681 µg/mL)	> 60
COc1ccc(Cl)cc1C(=O)Nc1cc(C(F)(F)F)cc(C(F)(F)F)c1	> 50	> 60
O=C(Nc1cc(C(F)(F)F)cc(C(F)(F)F)c1)c1cc(Cl)ccc1OCc1ccccc1	> 50	> 60
Nc1ccc(Cl)cc1C(=O)Nc1cc(C(F)(F)F)cc(C(F)(F)F)c1	> 50	> 60
O=C(Nc1cc(C(F)(F)F)cc(C(F)(F)F)c1)c1ccccc1Cl	> 50	> 1.7
Oc1ccc(Cl)cc1CNc1cc(C(F)(F)F)cc(C(F)(F)F)c1	≥ 50	7.8
O=C(Nc1cc(C(F)(F)F)cc(C(F)(F)F)c1)Nc1cc(Cl)ccc1O	≥ 50	13
O=C(Oc1cc(C(F)(F)F)cc(C(F)(F)F)c1)c1cc(Cl)ccc1O	> 50	> 60
O=C(Nc1cc(Cl)ccc1O)c1cc(C(F)(F)F)cc(C(F)(F)F)c1	> 50	12
Oc1ccc(Cl)cc1C(=S)Nc1cc(C(F)(F)F)cc(C(F)(F)F)c1	1.6 (≈ 0.64 µg/mL)	
O=S(=O)(Nc1cc(C(F)(F)F)cc(C(F)(F)F)c1)c1cc(Cl)ccc1O	≥ 50	23
O=C(NCc1cc(C(F)(F)F)cc(C(F)(F)F)c1)c1cc(Cl)ccc1O	6.3 (≈ 2.51 µg/mL)	27
O=C(Nc1ccccc1C(F)(F)F)c1cc(Cl)ccc1O		19
O=C(Nc1ccc(C(F)(F)F)c(C(F)(F)F)c1)c1cc(Cl)ccc1O	0.8 (≈ 0.307 µg/mL)	4.9
O=C(Nc1cccc(C(F)(F)F)c1C(F)(F)F)c1cc(Cl)ccc1O	6.3 (≈ 2.42 µg/mL)	8.1
O=C(Nc1cc(C(F)(F)F)ccc1C(F)(F)F)c1cc(Cl)ccc1O	3.1 (≈ 1.19 µg/mL)	6.6
O=C(Nc1ccccc1S(=O)(=O)c1ccccc1)c1cc(Cl)ccc1O	> 50	> 60
O=C(Nc1cc(C(F)(F)F)cc(C(F)(F)F)c1)c1ccccc1O	6.3 (≈ 2.2 µg/mL)	12
N#Cc1ccc(NC(=O)c2cc(Cl)ccc2O)cc1	13 (≈ 3.54 µg/mL)	11
O=C(Nc1cccc(C(F)(F)F)c1)c1cc(Cl)ccc1O	3.1 (≈ 0.979 µg/mL)	5.9
O=C(Nc1cc(C(F)(F)F)cc(C(F)(F)F)c1)c1cc(Cl)ccc1O [IMD-0354]	3.1 (≈ 1.19 µg/mL)	5.2
